Results as given in US20210330698A1, “METHODS AND COMPOSITIONS FOR INHIBITING ENVELOPED VIRUSES USING LOW MOLECULAR WEIGHT HYDROPHOBICALLY MODIFIED POLYMERS” (Johnson & Johnson Consumer Inc., priority 2020, published 2021).

Assays:
Assay type in all cases: cell-based
HIV-1IIIB = experiment: Time of compound addition in HeLa-CD4-LTR-β-Gal cells; settings: time of compound addition relative to virus addition
Description: HeLa-CD4-LTR-β-Gal cells are seeded at a density of 1×10^4 cells/well in a volume of 100 μL 24 hours prior to assay initiation and incubated at 37° C./5% CO2. Following the incubation compound is serially diluted at the specified concentrations and were added to the cells in triplicate at timepoints of −30 minutes, 0, 1, 2, 4, 8 and 24 hours pre- or post-virus addition in a volume of 100 μL. HIV-1IIIB is added to the cells at a pre-determined titer. The cultures are incubated at 37° C./5% CO2 for 48 hours at which time efficacy is evaluated using a chemiluminescent substrate (Gal-Screen™, ThermoFisher Scientific, Waltham, Mass.) and toxicity (three timepoints of 0, 4 and 24 hours) evaluated using the tetrazolium dye XTT.

Ca Ski (Cervical) cells = experiment: Toxicity to Ca Ski cells (XTT); settings: exposure 24 h
Description: (§1) TC50 values for the test materials are derived by measuring the reduction of the tetrazolium dye XTT (2,3-bis(2-methoxy-4-nitro-5-sulfophenyl)-5-[(phenylamino)carbonyl]-2H-tetrazolium hydroxide). XTT in metabolically active cells is metabolized by the mitochondrial enzyme Nicotinamide adenine dinucleotide phosphate oxidase (“NADPH”) to a soluble formazan product. XTT solution is prepared daily as a stock of 1 mg/ml in RPMI-1640 without additives. Phenazine methosulfate (PMS) solution is prepared at 0.15 mg/ml in DPBS and stored in the dark at −20° C. XTT/PMS stock is prepared immediately before use by adding 40 μL of PMS per ml of XTT solution. […] of XTT/PMS is added to each well of the plate and the plate incubated for 4 hours at 37° C. The 4 hour incubation has been empirically determined to be within the linear response range for XTT dye reduction with the indicated numbers of cells for each assay. The plates are sealed and inverted several times to mix the soluble formazan product and the plate is read at 450 nm (650 nm reference wavelength) with a Molecular Devices SpectraMax Plus 384 96 well plate format spectrophotometer.
(§2) Twenty-four hours prior to compound exposure, 100 μL of cells are plated at 5×10^4 cells per well in a flat-bottomed plate and. […] The plates are incubated at 5% CO2/37° C. for an additional 24 hours and then evaluated using XTT as described above.

[1] = tested on: Vaginal Ectocervical Tissues; experiment: Toxicity to vaginal ectocervical tissue (MTT); settings: exposure 24 h
Description: On the day of the assay, the MatTek assay media is warmed and 900 μL added to each well of a 6-well plate. One hour prior to dosing, the epivaginal tissues are removed from the refrigerator and placed in the 6-well plate and the plate then incubated for 1 hour at 37° C./5% CO2. Following the incubation the media is removed from the 6 well plate and 900 μL of fresh media added. One-hundred microliters (100 μL) of each concentration is added in duplicate to the epivaginal tissue. The plate is then incubated for an additional 24 hours at 37° C./5% CO2. One hour prior to the end of the incubation, 1 mg/mL (3-(4,5-Dimethylthiazol-2-yl)-2,5-diphenyltetrazolium bromide (hereinafter, “MTT” available from Invitrogen of Carlsbad, Calif.) in DMEM is prepared. Fifteen minutes prior to the end of the incubation 300 μL of MTT is added to each well of a 24-well plate. Following the incubation, residual liquid is removed from the tissue and then gently rinsed two times with PBS. Each epivaginal tissue insert is then transferred to an individual well of the 24-well plate containing the MTT solution. The plate is then incubated for 3 hours at 37° C./5% CO2. […] The optical density of each sample is determined at 570 nm with a background of 650 nm. The % viability is determined to be 100×[OD(sample)/OD(negative control)]. […]

ME180 (Cervical) cells = experiment: Toxicity to ME180 cells (XTT); settings: exposure 24 h
Description: as §1, §2

| Molecule | Time in which Antiviral Activity is Lost (HIV-1IIIB) | toxic concentration (Ca Ski (Cervical) cells) | toxic concentration [1] | toxic concentration (ME180 (Cervical) cells) |
| --- | --- | --- | --- | --- |
| O=C1Nc2ccc(Cl)cc2[C@@](C#CC2CC2)(C(F)(F)F)O1 [Efavirenz] | 4 to 8 h | – | – | – |
| Nonoxynol-9 [Embodiment N-9] | – | 36.31 µg/mL | 100 to 1000 µg/mL | 41.83 µg/mL |
